Experimental data reported in patent US5643927A, “4-p-fluorobenzoyl-1-piperidinyl-propoxy-chromen-4-one derivatives, their preparation and their use in the treatment of psychosis and schizophrenia” (Ferrer Internacional, S.A., priority 1994, dated 1997).
pIC50: −log10 of the molar value. Counter-ions that a name gives are not always drawn. Like-named read-outs stand apart in the source and are kept apart here.

Legend:
[1] = target: T1, 5HT2 receptors (Rattus norvegicus, UniProt P14842); assay: 5HT2 receptor binding ([3H]ketanserin displacement); conditions: for IC50: [3H]ketanserin 0.5 nM, rat cortex membrane, 30 min, 35° C., pH 7.4; for specificity over 5HT2 receptors versus D2 receptors (in words): D2 /5HT2 ratio
T1 construct: membrane corresponding to 1 mg of rat cortex; from tissue; host or cells: rat cortex membranes
Experimental: (§1) Specific binding to σ, D2, D3, 5H2 and 5HT1a receptors has been tested as follows:
(§2) 5HT2 receptors: A 0.5 nM solution of radioactive ketanserin ([^3 H]ketanserin), which acts as a specific ligand, was incubated with the membrane corresponding to 1 mg of rat cortex for 30 min at 35° C. buffered at pH 7.4 with Tris.HCl. […] After the incubation was completed, the sample was filtered through a glass fiber filter and then washed three times with Tris.HCl buffer. The amount of receptor-bound radioactivity was retained on the membrane and determined by liquid scintillation counting.
(§3) Values are expressed as IC50 in molar concentrations.

[2] = test system: catalepsy; assay: catalepsy in rats after oral administration (extrapyramidal effects); assay type: in vivo; conditions: rats, oral
[3] = as above; assay type: in vivo; conditions: rat, in vivo, po
[4] = test system: apomorphine-induced climbing behaviour; assay: Test (C): Inhibition of apomorphine-induced climbing behaviour; assay type: in vivo, Male Swiss mice; conditions: Mus musculus, 1 h; oral, mice; apomorphine 1 mg/kg s.c. after 60 min; climbing assessed after further 60 min
Experimental: One week prior to experiment, animals were kept in our facilities at a temperature of 20°-22° C. and 12/12 h light-dark cycle, and had free access to food and water. Two hours prior to experiment, the animals were placed in individual cages without access to food.
Two additional assessments were performed at 10-min intervals.
The walls of the box were made of translucent methacrylate except one of the lateral surfaces (7.5 cm wide) which was a 3-mm wire mesh. […] If an animal keeps several positions within the 2-min observation, the seconds elapsed in each position will be recorded. Finally, mean scoring was calculated.

[5] = animal pharmacological tests (overall statement); conditions: in vivo
[6] = target: σ receptors (Cavia porcellus, UniProt Q60492); assay: biochemical; assay type: binding; conditions: for IC50: [3H]3-PPP 2 nM, guinea-pig total brain membrane, 90 min, 25° C., pH 8.5, read-out: IC50 (M) σ
Experimental: as §1
σ receptors: A 2-nM solution of radioactive 3-PPP ((+) [^3 H]3-[3-hydroxyphenyl]-N-(1-propyl)-piperidine), which acts as a specific ligand, was incubated with the membrane corresponding to 40 mg of guinea-pig total brain for 90 min at 25° C. buffered at pH 8.5 with Tris.HCl. Thus, total binding of ligand to membranes was attained. Non-specific binding was then determined by adding a micromolar concentration of unlabelled 3-PPP. […] After the incubation was completed, the samples were filtered through a glass fiber filter and then washed three times with Tris.HCl buffer. The amount of receptor-bound radioactivity was retained on the membrane and determined by liquid scintillation counting.
as §3

[7] = target: T2, 5HT1a receptors (Rattus norvegicus, UniProt P19327); assay: biochemical; assay type: binding; conditions: for IC50: [3H]5-OH-DPAT 1 nM, rat cortex membrane, 20 min, 35° C., pH 7.4, read-out: IC50 (M) 5HT1A
T2 sequence (P19327 1-422): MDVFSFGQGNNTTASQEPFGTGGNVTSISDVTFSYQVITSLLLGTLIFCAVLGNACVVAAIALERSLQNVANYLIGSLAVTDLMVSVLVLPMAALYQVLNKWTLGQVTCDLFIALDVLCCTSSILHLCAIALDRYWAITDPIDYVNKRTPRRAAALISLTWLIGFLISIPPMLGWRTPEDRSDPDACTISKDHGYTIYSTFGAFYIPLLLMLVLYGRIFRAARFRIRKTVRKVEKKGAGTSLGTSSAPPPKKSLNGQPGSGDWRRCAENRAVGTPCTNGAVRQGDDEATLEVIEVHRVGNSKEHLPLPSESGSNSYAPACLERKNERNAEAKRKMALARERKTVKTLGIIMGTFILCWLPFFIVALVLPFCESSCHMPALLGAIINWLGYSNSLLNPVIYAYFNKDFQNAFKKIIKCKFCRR
Experimental: as §1
as §2, with “5HT1a” for “5HT2”, “1” for “0.5”, “[…]” for “ketanserin”, “H]5-OH-DPAT),” for “H]ketanserin),”, “20” for “30”, “Tris.HCl. Non-specific binding was then determined by addition of a 20 micromolar concentration of unlabelled buspirone.” for “Tris.HCl.”
as §3

[8] = target: T3, D3 receptors (Homo sapiens, UniProt P35462); assay: biochemical; assay type: binding; conditions: for IC50: [3H]YM-0951 0.1 nM, membrane from mouse fibroblasts (CCL 1,3), 15 min, 37° C., pH 7.4, read-out: IC50 (M) D3
T3 construct: purchased RBI; host or cells: mouse fibroblasts (CCL 1,3)
Experimental: as §1
D3 receptors: A 0.1 nM solution of radioactive YM-0951 ([^3 H]YM-0951), which acts as a specific ligand, was incubated with the membrane provided by RBI obtained from mouse fibroblasts (CCL 1,3) for 15 min at 37° C., buffered at pH 7.4 with Tris.HCl. […] After the incubation was completed, the sample was filtered through a glass fiber filter and then washed three times with Tris.HCl buffer. The amount of receptor-bound radioactivity was retained on the membrane and determined by liquid scintillation counting.
as §3

[9] = target: D2 receptors (Rattus norvegicus, UniProt P61169); assay: biochemical; assay type: binding; conditions: for IC50: [3H]spiperone 2 nM, rat striatum membrane, 20 min, 35° C., pH 7.4, read-out: IC50 (M) D2
Experimental: as §1
D2 receptors: A 2-nM solution of radioactive spiperone ([^3 H]spiperone), which acts as a specific ligand, was incubated with the membrane corresponding to 20 mg of rat striatum for 20 min at 35° C. buffered at pH 7.4 with Tris.HCl. The non-specific binding was then determined by addition of a micromolar concentration of unlabelled spiperone. […] After the incubation was completed, the sample was filtered through a glass fiber filter and then washed three times with Tris.HCl buffer. The amount of receptor-bound radioactivity was retained on the membrane and determined by liquid scintillation counting.
as §3

Chain of σ receptors (Q60492 whole entry): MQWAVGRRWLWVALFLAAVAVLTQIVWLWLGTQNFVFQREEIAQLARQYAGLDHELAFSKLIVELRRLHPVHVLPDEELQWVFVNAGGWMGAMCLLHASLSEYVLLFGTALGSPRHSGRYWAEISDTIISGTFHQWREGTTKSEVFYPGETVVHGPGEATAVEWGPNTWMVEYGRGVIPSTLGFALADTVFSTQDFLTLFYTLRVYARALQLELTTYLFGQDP
T3 sequence (P35462 whole entry): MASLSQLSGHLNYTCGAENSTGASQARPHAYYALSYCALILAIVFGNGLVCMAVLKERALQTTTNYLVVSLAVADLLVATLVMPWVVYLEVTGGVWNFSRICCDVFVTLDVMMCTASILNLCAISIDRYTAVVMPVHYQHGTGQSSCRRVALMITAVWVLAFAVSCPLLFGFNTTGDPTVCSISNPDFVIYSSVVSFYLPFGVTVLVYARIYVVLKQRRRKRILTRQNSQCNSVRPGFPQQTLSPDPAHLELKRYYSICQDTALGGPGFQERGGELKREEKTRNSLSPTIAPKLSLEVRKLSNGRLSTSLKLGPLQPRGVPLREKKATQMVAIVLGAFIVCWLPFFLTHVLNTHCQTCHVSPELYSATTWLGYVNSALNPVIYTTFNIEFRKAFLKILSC
Chain of D2 receptors (P61169 whole entry): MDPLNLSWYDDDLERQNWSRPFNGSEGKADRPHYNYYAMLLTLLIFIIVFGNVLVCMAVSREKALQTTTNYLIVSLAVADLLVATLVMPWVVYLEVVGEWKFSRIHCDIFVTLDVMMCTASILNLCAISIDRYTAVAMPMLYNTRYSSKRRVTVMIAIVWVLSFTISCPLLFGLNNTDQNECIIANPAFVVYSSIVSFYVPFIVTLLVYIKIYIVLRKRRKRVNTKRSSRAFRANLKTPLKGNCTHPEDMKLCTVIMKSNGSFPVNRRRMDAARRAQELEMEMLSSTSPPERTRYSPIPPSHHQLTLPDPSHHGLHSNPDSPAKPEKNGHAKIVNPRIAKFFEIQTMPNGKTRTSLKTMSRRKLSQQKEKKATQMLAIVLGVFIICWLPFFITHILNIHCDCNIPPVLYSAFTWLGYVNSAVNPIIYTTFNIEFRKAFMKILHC
T1 sequence (P14842 whole entry): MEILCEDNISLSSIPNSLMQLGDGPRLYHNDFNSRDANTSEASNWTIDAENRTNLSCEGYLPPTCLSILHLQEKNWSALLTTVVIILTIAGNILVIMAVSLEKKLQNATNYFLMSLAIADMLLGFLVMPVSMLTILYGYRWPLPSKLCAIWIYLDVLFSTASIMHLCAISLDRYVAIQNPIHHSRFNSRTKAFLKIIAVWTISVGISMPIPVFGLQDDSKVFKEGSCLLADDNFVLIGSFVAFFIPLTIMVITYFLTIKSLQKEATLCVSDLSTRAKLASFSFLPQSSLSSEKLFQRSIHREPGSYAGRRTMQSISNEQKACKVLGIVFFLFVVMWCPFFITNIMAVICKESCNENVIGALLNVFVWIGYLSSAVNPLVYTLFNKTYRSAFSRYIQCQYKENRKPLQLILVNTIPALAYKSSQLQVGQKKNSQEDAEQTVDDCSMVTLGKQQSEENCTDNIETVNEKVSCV

Structure (SMILES) | IC50 [1] [nM] | IC50 [6] [M] | IC50 [7] [M] | IC50 [8] [M] | IC50 [9] [M] | other results
Cl.O=C(c1ccc(F)cc1)C1CCN(CCCOc2ccc3c(=O)c(CO)coc3c2)CC1 [Example 4, 3-Hydroxymethyl-7-[3-(4-p-fluorobenzoyl-1-piperidinyl)propoxy]-chromen-4-one hydrochloride] | 47.4 | – | – | – | – | D2 /5HT2 ([1]; ratio of IC50 D2 to IC50 5HT2): 4.01; extrapyramidal effects (in words) [2]: did not show very important extrapyramidal effects; TD50 [3]: 15 mg/kg; ED50 [4]: 3.2 mg/kg; activity in animal pharmacological tests (in words) [5]: very active in animal pharmacological tests
Cc1coc2cc(OCCCN3CCC(C(=O)c4ccc(F)cc4)CC3)ccc2c1=O [Example 3, 7-[3-(4-p-fluorobenzoyl-1-piperidinyl)propoxy]-3-methyl-chromen-4-one hydrochloride] | 82 | – | – | – | – | pIC50 [6]: 6.61; pIC50 [7]: 6.12; pIC50 [8]: 6.71; pIC50 [9]: 6.89
Cc1cc(=O)c2ccc(OCCCN3CCC(C(=O)c4ccc(F)cc4)CC3)cc2o1 [Example 2, 7-[3-(4-p-fluorobenzoyl-1-piperidinyl)propoxy]-2-methyl-chromen-4-one hydrochloride] | 56.6 | 7.99e-07 | 1.57e-06 | 8.55e-07 | 3.74e-07 | –
OC(CCCN1CCN(c2ncc(F)cn2)CC1)c1ccc(F)cc1 (centres unmarked) [BMY-14802, reference compound] | 1150 | – | – | – | 1.59e-05 | –
Cl.O=C(c1ccc(F)cc1)C1CCN(CCCOc2ccc3c(=O)ccoc3c2)CC1 [Example 1, 7-[3-(4-p-fluorobenzoyl-1-piperidinyl)propoxy]chromen-4-one hydrochloride] | 17.1 | 1.46e-08 | 1.56e-06 | 6.88e-08 | 4.36e-07 | specificity over 5HT2 receptors versus D2 receptors (in words) ([1]; hydrochloride): the most specific over 5HT2 receptors versus D2 receptors; specificity over 5HT2 receptors versus D2 receptors (in words) ([1]; listed as Ex. 1, hydrochloride): surpasses BMY-14802 and risperidone in D2 /5HT2 ratio; activity on D3 receptors (in words) ([8]; compared with 7-OH-DPAT): active on D3 receptors in the same order as 7-OH-DPAT
